Literature values, collected in patent publication US20130072576A1, “Cationic Nanogels For Biotechnological Applications” (Universidad Del Pais Vasco, priority 2010, published 2013).

For `C=CN1CCCCCC1=O` [VCL, N-vinylcaprolactam], the solubility in water is listed as 8.5 % by weight.
